Laboratory results as given in ChEMBL document CHEMBL1150604, “Convolutindole A and convolutamine H, new nematocidal brominated alkaloids from the marine bryozoan Amathia convoluta” (2002).
Active and inactive are the calls of the source. The calls are words filed in the database; no cut-off is given here.

Experiments:
Bacillus subtilis [1] = conditions: ATCC 6633, 50 ug/ml
Description: Antibacterial activity against Bacillus subtilis ATCC 6633 at 50 ug/ml after 24 hrs by agar-based microtiter plate assay

Saccharomyces cerevisiae [2] = conditions: ATCC 9763, 50 ug/ml
Description: Antifungal activity against Saccharomyces cerevisiae ATCC 9763 at 50 ug/ml after 24 hrs by agar-based microtiter plate assay

Heteropogon contortus = assay: Nematocidal activity against […] McMaster assessed as inhibition of nematode larval development after 5 days; assay type: functional
Bacillus subtilis [3] = assay: Antibacterial activity against Bacillus subtilis ATCC 6633 after 24 hrs by agar-based microtiter plate assay; assay type: functional
Saccharomyces cerevisiae [4] = assay: Antifungal activity against Saccharomyces cerevisiae ATCC 9763 at 200 ug/ml after 24 hrs by agar-based microtiter plate assay; assay type: functional, organism-based
Bacillus subtilis [5] = assay: Antibacterial activity against Bacillus subtilis ATCC 6633 at 100 ug/ml after 24 hrs by agar-based microtiter plate assay; assay type: functional, organism-based

Row | Structure (SMILES) | LD99 (Bacillus subtilis [1]) | LD99 (Saccharomyces cerevisiae [2]) | LD99 (Heteropogon contortus) [µg/mL] | LD99 (Bacillus subtilis [3]) [µg/mL] | LD99 (Saccharomyces cerevisiae [4]) | LD99 (Bacillus subtilis [5])
1 | c1ccc([C@H]2CN3CCSC3=N2)cc1 [LEVAMISOLE] | inactive | inactive | 1.6 |  |  | 
2 | COc1c(Br)cc(Br)c2c(CCN(C)C)c(Br)n(OC)c12 [CONVOLUTINDOLE A] |  |  | 0.39 | 50 | inactive | 
3 | CNCCc1c(Br)c(Br)c(Br)c(OC)c1OC [CONVOLUTAMINE H] |  |  | 0.2 |  | inactive | inactive
